SMILES strings stand for the structures. pIC50: −log10 of the molar value. Counter-ions that a name gives are not always drawn.

One test has as its system Plasmodium falciparum 3D7 strain. Kind of test: P. falciparum 3D7 asexual blood stage assay (SYBR green readout). It is filed as cell-based. The note with it: Plasmodium falciparum, 3D7, Erythrocyte, 72 h. In a few lines:
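P. falciparum 3D7 in A+ erythrocytes (5% haematocrit, 0.5% parasitaemia) exposed 72 h at 37 °C under 1% O2/3% CO2 to 20-point 1.5-fold titrations, 50,000–15 nM in 0.5% DMSO. SYBR green lysis overnight, fluorescence 485/528 nm; normalized to mefloquine and DMSO, EC50 from biphasic two-site fit.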
`C[C@@H]1C[C@H](N2C(=N)N[C@](C)(c3cccc(NC(=O)c4cc(C(F)(F)F)ccc4F)c3Cl)CC2=O)CCO1` (relative stereo) [Example 83, N-(2-Chloro-3-{(4S)-2-imino-4-methyl-1-[(2R*,4R*)-2-methyl-tetrahydropyran-4-yl]-6-oxo-hexahydropyrimidin-4-yl}phenyl)-2-fluoro-5-(trifluoromethyl)-benzamide trifluoroacetic acid salt]: the pIC50 is 7.74. In turn, `C[C@@H]1CC(N2C(=N)N[C@](C)(c3cccc(NC(=O)c4cc(Cl)ccc4OC(F)F)c3Cl)CC2=O)CCO1` (relative stereo) [Example 84, 5-Chloro-N-(2-chloro-3-{(4S)-2-imino-4-methyl-1-[(2R*,4R*)-2-methyltetrahydropyran-4-yl]-6-oxo-hexahydropyrimidin-4-yl]phenyl)-2-(difluoromethoxy)benzamide trifluoroacetic acid salt] had a pIC50 of 7.43. The same measure, in the same setting: as for `COc1ccc(S(C)(=O)=O)cc1C(=O)Nc1cccc([C@]2(C)CC(=O)N([C@@H]3CCO[C@H](C)C3)C(=N)N2)c1Cl` (relative stereo) [Example 85, N-(2-Chloro-3-{(4S)-2-imino-4-methyl-1-[(2R*,4R*)-2-methyl-tetrahydropyran-4-yl]-6-oxo-hexahydropyrimidin-4-yl}phenyl)-2-methoxy-5-(methylsulfonyl)-benzamide trifluoroacetic acid salt], the figure is 7.12; as for `C[C@@H]1C[C@H](N2C(=N)N[C@](C)(c3cccc(NC(=O)c4nc5ccccc5nc4C(F)(F)F)c3Cl)CC2=O)CCO1` (relative stereo) [Example 88, N-(2-Chloro-3-{(4S)-2-imino-4-methyl-1-[(2R*,4R*)-2-methyl-tetrahydropyran-4-yl]-6-oxo-hexahydropyrimidin-4-yl]phenyl)-3-(trifluoromethyl)quinoxaline-2-carboxamide trifluoroacetic acid salt], 7.34; as for `C[C@@H]1C[C@H](N2C(=N)N[C@](C)(c3cccc(NC(=O)c4ccncc4C(F)(F)F)c3Cl)CC2=O)CCO1` (relative stereo) [Example 89, N-(2-Chloro-3-{(4S)-2-imino-4-methyl-1-[(2R*,4R*)-2-methyl-tetrahydropyran-4-yl]-6-oxo-hexahydropyrimidin-4-yl}phenyl)-3-(trifluoromethyl)pyridine-4-carboxamide trifluoroacetic acid salt], 6.43. The molecule `C[C@@H]1C[C@H](N2C(=N)N[C@](C)(c3cccc(NC(=O)c4cccc(-n5cccn5)c4)c3Cl)CC2=O)CCO1` (relative stereo) [Example 90, N-(2-Chloro-3-{(4S)-2-imino-4-methyl-1-[(2R*,4R*)-2-methyl-tetrahydropyran-4-yl]-6-oxo-hexahydropyrimidin-4-yl}phenyl)-3-(pyrazol-1-yl)benzamide trifluoroacetic acid salt] had a pIC50 of 7.64.

Consider `C[C@@H]1C[C@H](N2C(=N)N[C@](C)(c3cccc(NC(=O)c4cncc(N(C)C)n4)c3Cl)CC2=O)CCO1` (relative stereo) [Example 91, N-(2-Chloro-3-{(4S)-2-imino-4-methyl-1-[(2R*,4R*)-2-methyl-tetrahydropyran-4-yl]-6-oxo-hexahydropyrimidin-4-yl]phenyl)-6-(dimethylamino)pyrazine-2-carboxamide hydrochloride], for which the negative-log IC50 (pIC50) is 6.94. Still for that read-out and setting: as for `C[C@@H]1C[C@H](N2C(=N)N[C@](C)(c3cccc(NC(=O)c4ncc(Cl)cn4)c3Cl)CC2=O)CCO1` (relative stereo) [Example 92, 5-Chloro-N-(2-chloro-3-{(4S)-2-imino-4-methyl-1-[(2R*,4R*)-2-methyltetrahydropyran-4-yl]-6-oxo-hexahydropyrimidin-4-yl]phenyl)-pyrimidine-2-carboxamide hydrochloride], the figure is 7.55; as for `C[C@@H]1C[C@H](N2C(=N)N[C@](C)(c3cccc(NC(=O)c4cc(N5CCOCC5)ccn4)c3Cl)CC2=O)CCO1` (relative stereo) [Example 93, N-(2-Chloro-3-{(4S)-2-imino-4-methyl-1-[(2R*,4R*)-2-methyl-tetrahydropyran-4-yl]-6-oxo-hexahydropyrimidin-4-yl]phenyl)-4-(morpholin-4-yl)pyridine-2-carboxamide hydrochloride], 7.33.

Molecule `C[C@@H]1C[C@H](N2C(=N)N[C@](C)(c3cccc(NC(=O)c4ncc(F)cc4C(F)(F)F)c3Cl)CC2=O)CCO1` (relative stereo) [Example 94, N-(2-Chloro-3-{(4S)-2-imino-4-methyl-1-[(2R*,4R*)-2-methyl-tetrahydropyran-4-yl]-6-oxo-hexahydropyrimidin-4-yl}phenyl)-5-fluoro-3-(trifluoromethyl)-pyridine-2-carboxamide hydrochloride] showed a pIC50 of 7.09. On the same count and under the same terms, as for `C[C@@H]1C[C@H](N2C(=N)N[C@](C)(c3cccc(NC(=O)c4cc(C#N)cc(C(F)(F)F)c4)c3Cl)CC2=O)CCO1` (relative stereo) [Example 95, N-(2-Chloro-3-{(4S)-2-imino-4-methyl-1-[(2R*,4R*)-2-methyl-tetrahydropyran-4-yl]-6-oxo-hexahydropyrimidin-4-yl}phenyl)-3-cyano-5-(trifluoromethyl)-benzamide hydrochloride], the figure is 7.47; as for `C[C@@H]1C[C@H](N2C(=N)N[C@](C)(c3cccc(NC(=O)c4cnccc4F)c3Cl)CC2=O)CCO1` (relative stereo) [Example 96, N-(2-Chloro-3-{(4S)-2-imino-4-methyl-1-[(2R*,4R*)-2-methyl-tetrahydropyran-4-yl]-6-oxo-hexahydropyrimidin-4-yl}phenyl)-4-fluoropyridine-3-carboxamide hydrochloride], 6.25. Regarding `C[C@@H]1C[C@H](N2C(=N)N[C@](C)(c3cccc(NC(=O)c4cccc(Cl)c4F)c3Cl)CC2=O)CCO1` (relative stereo) [Example 97, 3-Chloro-N-(2-chloro-3-{(4S)-2-imino-4-methyl-1-[(2R* ,4R*)-2-methyltetrahydropyran-4-yl]-6-oxo-hexahydropyrimidin-4-yl]phenyl)-2-fluorobenzamide hydrochloride], the pIC50 was 7.68. `C[C@@H]1C[C@H](N2C(=N)N[C@](C)(c3cccc(NC(=O)c4cc(C#N)ccc4Cl)c3Cl)CC2=O)CCO1` (relative stereo) [Example 98, 2-Chloro-N-(2-chloro-3-{(4S)-2-imino-4-methyl-1-[(2R*,4R*)-2-methyltetrahydropyran-4-yl]-6-oxo-hexahydropyrimidin-4-yl}phenyl)-5-cyanobenzamide hydrochloride] had a pIC50 of 7.35. Still for that read-out and setting: as for `C[C@@H]1C[C@H](N2C(=N)N[C@](C)(c3cccc(NC(=O)c4cc(F)cc(C#N)c4)c3Cl)CC2=O)CCO1` (relative stereo) [Example 99, N-(2-Chloro-3-{(4S)-2-imino-4-methyl-1-[(2R*,4R*)-2-methyl-tetrahydropyran-4-yl]-6-oxo-hexahydropyrimidin-4-yl}phenyl)-3-cyano-5-fluorobenzamide hydrochloride], the figure is 7.74. As to `C[C@@H]1C[C@H](N2C(=N)N[C@](C)(c3cccc(NC(=O)c4ncc(F)cc4F)c3Cl)CC2=O)CCO1` (relative stereo) [Example 100, N-(2-Chloro-3-{(4S)-2-imino-4-methyl-1-[(2R*,4R*)-2-methyl-tetrahydropyran-4-yl]-6-oxo-hexahydropyrimidin-4-yl}phenyl)-3,5-difluoropyridine-2-carboxamide hydrochloride], the negative logarithm of the IC50 (pIC50) was 7.48. On the same count and under the same terms, the value for `C[C@@H]1C[C@H](N2C(=N)N[C@](C)(c3cccc(NC(=O)c4ccc(F)cc4OC(F)(F)F)c3Cl)CC2=O)CCO1` (relative stereo) [Example 102, N-(2-Chloro-3-{(4S)-2-imino-4-methyl-1-[(2R*,4R*)-2-methyl-tetrahydropyran-4-yl]-6-oxo-hexahydropyrimidin-4-yl}phenyl)-4-fluoro-2-(trifluoromethoxy)-benzamide hydrochloride] was 7.46; that for `C[C@@H]1C[C@H](N2C(=N)N[C@](C)(c3cccc(NC(=O)c4cncn4C)c3Cl)CC2=O)CCO1` (relative stereo) [Example 103, N-(2-Chloro-3-{(4S)-2-imino-4-methyl-1-[(2R*,4R*)-2-methyl-tetrahydropyran-4-yl]-6-oxo-hexahydropyrimidin-4-yl}phenyl)-3-methylimidazole-4-carboxamide hydrochloride] was 7.77.

The same test, now with this note: Plasmodium falciparum, Erythrocyte; P. falciparum 3D7 in human erythrocytes, 72 h incubation, SYBR green fluorescence; read-out: IC50.
In the case of `C[C@@H]1C[C@H](N2C(=N)N[C@](C)(c3cccc(NC(=O)c4cccc5c4OCO5)c3Cl)CC2=O)CCO1` (relative stereo) [Example 86, N-(2-Chloro-3-{(4S)-2-imino-4-methyl-1-[(2R*,4R*)-2-methyl-tetrahydropyran-4-yl]-6-oxo-hexahydropyrimidin-4-yl]phenyl)-1,3-benzodioxole-4-carboxamide trifluoroacetic acid salt], the negative-log IC50 (pIC50) was 8.00. On the same count and under the same terms, the value for `COc1ccc(F)cc1C(=O)Nc1cccc([C@]2(C)CC(=O)N([C@@H]3CCO[C@H](C)C3)C(=N)N2)c1Cl` (relative stereo) [Example 87, N-(2-Chloro-3-{(4S)-2-imino-4-methyl-1-[(2,R*,4R*)-2-methyl-tetrahydropyran-4-yl]-6-oxo-hexahydropyrimidin-4-yl}phenyl)-5-fluoro-2-methoxybenzamide trifluoroacetic acid salt] was 7.74; that for `C[C@@H]1C[C@H](N2C(=N)N[C@](C)(c3cccc(NC(=O)c4c(F)cc(F)cc4F)c3Cl)CC2=O)CCO1` (relative stereo) [Example 101, N-(2-Chloro-3-{(4S)-2-imino-4-methyl-1-[(2,R*,4R*)-2-methyl-tetrahydropyran-4-yl]-6-oxo-hexahydropyrimidin-4-yl]phenyl)-2,4,6-trifluorobenzamide hydrochloride] was 7.07.

The record behind these values is patent US20220289685A1, “ANTIMALARIAL HEXAHYDROPYRIMIDINE ANALOGUES” (UCB BIOPHARMA SRL, priority 2019, published 2022).
